Results on 3 compounds are retold here after patent EP3046573B1, “AMYLIN ANALOGUES” (Zealand Pharma A/S, priority 2013, dated 2015).

Data set [1] in a line: Assessment of physical stability: fibril formation detected with Thioflavin T (ThT), lag-time. The class given is physicochemical. The conditions noted are these: 1 mg/ml peptide, 40 µM ThT, FND = Fibrillation not detected; for Fibrillation lag time (hours) pH 4.0 (Ac): 50 mM acetate buffer pH 4.0, 96 hours at 40°C; for Fibrillation lag time (hours) pH 7.0 (His): 50 mM histidine buffer pH 7.0, 96 hours at 40°C; for Fibrillation lag time (hours) pH 7.0 (Ph): 50 mM phosphate buffer pH 7.0, 96 hours at 40°C. Put shortly:
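Test peptide at 1 mg/ml with 40 µM ThT in 50 mM phosphate (pH 7.0), 50 mM histidine (pH 7.0) or 50 mM acetate (pH 4.0), in triplicate, 40° C. for 96 h. Fluorescence read every 10 min after 300 s agitation. Lag-time (h) taken as intersection of linear fits to initial stable and growth phases.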

Data set [2] can be described thus: Solubility assessment (turbidity absorbance at 325 nm). It is filed as physicochemical. As to conditions: stock 2 mg/ml diluted 1:1, ambient temperature (typically 25°C), n=1; for Solubility, Acetate buffer pH 4: 100 mM acetate buffer pH 4.0; for Solubility, Acetate buffer pH 5: 100 mM acetate buffer pH 5.0; for Solubility, Histidine buffer pH 6: 100 mM histidine buffer pH 6.0; for Solubility, Histidine buffer pH 7: 100 mM histidine buffer pH 7.0; for Solubility, Phosphate buffer pH 6: 100 mM phosphate buffer pH 6.0; for Solubility, Phosphate buffer pH 7: 100 mM phosphate buffer pH 7.0; for Solubility, Phosphate buffer pH 7.5: 100 mM phosphate buffer pH7.5. Put shortly:
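Turbidity read as absorbance at 325 nm (also 280 nm), single samples at ambient temperature (typically 25°C); ≤ 0.02 units counts as ≥ 1 mg/ml soluble. Samples made by 1:1 dilution of a 2 mg/ml acidic stock into 100 mM acetate, histidine or phosphate buffers, pH 4.0–7.5.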

The subject of data set [3] is Sprague Dawley (SD) rats. In words: Acute food intake and body weight in normal Sprague Dawley rats. It is filed as in vivo. The conditions noted are these: vehicle-corrected, dose 30 nmol/kg sc, once; for Body weight loss (%) after 96 hours: mean ± SEM, n = 8. The method in brief:
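Normal male-unspecified SD rats, n = 8 per group, given a single s.c. peptide dose of 30 nmol/kg just before dark phase, with vehicle and positive control groups. Food intake recorded at 0, 4, 7, 10, 24, 48, 72 and 96 h; body weight daily; means ± SEM.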

Each structure is given as a SMILES string. Numbered stars: 1 amine (or outer) side, 2 acyl side, 3 side chain; on linkers, the order of the positions; unused ones are H or OH. Bridge positions count the residues as written; N and C are the ends. Square brackets hold non-standard residues; d marks the D form. Peptide text beside a SMILES is read from it. * marks the point of attachment. C20 diacid = O=C(O)CCCCCCCCCCCCCCCCCCC(=O)*; γGlu = O=C(O)[C@H](CCC(=O)[*:2])N[*:1]; Hyp = O=C(O)[C@@H]1C[C@@H](O)CN1; NMeI = CC[C@H](C)[C@H](NC)C(=O)O; Sar = CNCC(=O)O

Turning to `CC[C@H](C)[C@@H](C(=O)N[C@@H](CC(C)C)C(=O)N[C@@H](CO)C(=O)N[C@@H](CO)C(=O)N[C@H](C(=O)N[C@@H](CCC(=O)O)C(=O)N[C@H](C(=O)NCC(=O)N[C@@H](CO)C(=O)N[C@@H](CCC(=O)O)C(=O)N[C@H](C(=O)N1CCC[C@H]1C(N)=O)[C@@H](C)O)C(C)C)[C@@H](C)O)N(C)C(=O)[C@H](C)NC(=O)CN(C)C(=O)[C@H](Cc1ccccc1)NC(=O)[C@H](CO)NC(=O)[C@H](CO)NC(=O)[C@H](CCCNC(=N)N)NC(=O)[C@H](Cc1c[nH]cn1)NC(=O)[C@H](CC(C)C)NC(=O)[C@H](Cc1ccccc1)NC(=O)[C@H](CCC(=O)O)NC(=O)[C@H](C)NC(=O)[C@H](CC(C)C)NC(=O)[C@H](CCCNC(=N)N)NC(=O)[C@H](CCC(=O)O)NC(=O)[C@@H](NC(=O)[C@H](C)NC(=O)[C@@H]1CSSC[C@H](NC(=O)[C@H](CCCNC(=N)N)NC(=O)CC[C@H](NC(=O)CCCCCCCCCCCCCCCCCCC(=O)O)C(=O)O)C(=O)NCC(=O)N[C@@H]([C@@H](C)O)C(=O)N[C@@H](C)C(=O)N[C@@H]([C@@H](C)O)C(=O)N1)[C@@H](C)O` [Compound 162, [19CD]-isoGlu-RC()GTATC()ATERLAEFLHRSSF-Gly(Me)-A-Ile(Me)-LSSTEVGSETP-NH2] ({C20 diacid-γGlu}-RCGTATCATERLAEFLHRSSF[Sar]A[NMeI]LSSTEVGSETP-NH2; disulfide 2-7), in data set [1], the “Fibrillation lag time (hours) pH 4.0 (Ac)” value (from here on “Fibrillation lag time … (Ac)”) is given as “FND”, the “Fibrillation lag time (hours) pH 7.0 (His)” value (shortened to “Fibrillation lag time … (His)”) is reported as “FND” and the “Fibrillation lag time (hours) pH 7.0 (Ph)” value (“Fibrillation lag time … (Ph)” for short) is “FND”. Besides, in data set [2], the “Solubility, Acetate buffer pH 4” value is recorded as “SS (SS indicates solubility ≥ 1mg/ml)”; the “Solubility, Acetate buffer pH 5” value is given as “SS (SS indicates solubility ≥ 1mg/ml)”; the “Solubility, Histidine buffer pH 6” value is on record as “SS (SS indicates solubility ≥ 1mg/ml)”; the “Solubility, Histidine buffer pH 7” value was “SS (SS indicates solubility ≥ 1mg/ml)”. Besides, in data set [2], the “Solubility, Phosphate buffer pH 6” value was “SS (SS indicates solubility ≥ 1mg/ml)”; the “Solubility, Phosphate buffer pH 7” value is given as “SS (SS indicates solubility ≥ 1mg/ml)”; the “Solubility, Phosphate buffer pH 7.5” value is given as “SS (SS indicates solubility ≥ 1mg/ml)”. Besides, in data set [3], the “Food intake inhibition (%) after 48 hours” value (shortened to “Food intake inhibition (%)”) is reported as 99% and the “Body weight loss (%) after 96 hours” value was determined as 13 ± 2.2%.
Turning to `CC[C@H](C)[C@@H](C(=O)N[C@@H](CC(C)C)C(=O)N[C@@H](CO)C(=O)N[C@@H](CO)C(=O)N[C@H](C(=O)N[C@@H](CCC(=O)O)C(=O)N[C@H](C(=O)NCC(=O)N[C@@H](CO)C(=O)N[C@@H](CCC(=O)O)C(=O)N[C@H](C(=O)N1C[C@H](O)C[C@H]1C(N)=O)[C@@H](C)O)C(C)C)[C@@H](C)O)N(C)C(=O)[C@H](C)NC(=O)CN(C)C(=O)[C@H](Cc1ccccc1)NC(=O)[C@H](CO)NC(=O)[C@H](CO)NC(=O)[C@H](CCCNC(=N)N)NC(=O)[C@H](Cc1c[nH]cn1)NC(=O)[C@H](CC(C)C)NC(=O)[C@H](Cc1ccccc1)NC(=O)[C@H](CCC(=O)O)NC(=O)[C@H](C)NC(=O)[C@H](CC(C)C)NC(=O)[C@H](CCCNC(=N)N)NC(=O)[C@H](CCC(=O)O)NC(=O)[C@@H](NC(=O)[C@H](C)NC(=O)[C@@H]1CSSC[C@H](NC(=O)[C@H](CCCNC(=N)N)NC(=O)CC[C@H](NC(=O)CCCCCCCCCCCCCCCCCCC(=O)O)C(=O)O)C(=O)NCC(=O)N[C@@H]([C@@H](C)O)C(=O)N[C@@H](C)C(=O)N[C@@H]([C@@H](C)O)C(=O)N1)[C@@H](C)O` [Compound 166, [19CD]-isoGlu-RC()GTATC()ATERLAEFLHRSSF-Gly(Me)-A-Ile(Me)-LSSTEVGSET-Hyp-NH2] ({C20 diacid-γGlu}-RCGTATCATERLAEFLHRSSF[Sar]A[NMeI]LSSTEVGSET[Hyp]-NH2; disulfide 2-7), in data set [1], the “Fibrillation lag time … (Ac)” value is recorded as “FND”, the “Fibrillation lag time … (His)” value is “FND” and the “Fibrillation lag time … (Ph)” value is “FND”. Moreover, in data set [2], the “Solubility, Acetate buffer pH 4” value was “SS (SS indicates solubility ≥ 1mg/ml)”; the “Solubility, Acetate buffer pH 5” value is recorded as “SS (SS indicates solubility ≥ 1mg/ml)”; the “Solubility, Histidine buffer pH 6” value is listed as “SS (SS indicates solubility ≥ 1mg/ml)”; the “Solubility, Histidine buffer pH 7” value is “SS (SS indicates solubility ≥ 1mg/ml)”. In data set [2], the “Solubility, Phosphate buffer pH 6” value was “SS (SS indicates solubility ≥ 1mg/ml)”; the “Solubility, Phosphate buffer pH 7” value was “SS (SS indicates solubility ≥ 1mg/ml)”; the “Solubility, Phosphate buffer pH 7.5” value was “SS (SS indicates solubility ≥ 1mg/ml)”. Moreover, in data set [3], the “Food intake inhibition (%)” value turned out to be 99% and the “Body weight loss (%) after 96 hours” value amounted to 12 ± 1.6%.
Turning to `CC[C@H](C)[C@@H](C(=O)N[C@@H](CC(C)C)C(=O)N[C@@H](CO)C(=O)N[C@@H](CO)C(=O)N[C@H](C(=O)N[C@@H](CC(=O)O)C(=O)N[C@H](C(=O)NCC(=O)N[C@@H](CO)C(=O)N[C@@H](CC(=O)O)C(=O)N[C@H](C(=O)N1CCC[C@H]1C(N)=O)[C@@H](C)O)C(C)C)[C@@H](C)O)N(C)C(=O)[C@H](C)NC(=O)CN(C)C(=O)[C@H](Cc1ccccc1)NC(=O)[C@H](CO)NC(=O)[C@H](CO)NC(=O)[C@H](CCCNC(=N)N)NC(=O)[C@H](Cc1c[nH]cn1)NC(=O)[C@H](CC(C)C)NC(=O)[C@H](Cc1ccccc1)NC(=O)[C@H](CCC(=O)O)NC(=O)[C@H](C)NC(=O)[C@H](CC(C)C)NC(=O)[C@H](CCCNC(=N)N)NC(=O)[C@H](CC(=O)O)NC(=O)[C@@H](NC(=O)[C@H](C)NC(=O)[C@@H]1CSSC[C@H](NC(=O)[C@H](CCCNC(=N)N)NC(=O)CC[C@H](NC(=O)CCCCCCCCCCCCCCCCCCC(=O)O)C(=O)O)C(=O)N2CCC[C@H]2C(=O)N[C@@H]([C@@H](C)O)C(=O)N[C@@H](C)C(=O)N[C@@H]([C@@H](C)O)C(=O)N1)[C@@H](C)O` [Compound 172, [19CD]-isoGlu-RC()PTATC()ATDRLAEFLHRSSF-Gly(Me)-A-Ile(Me)-LSSTDVGSDTP-NH2] ({C20 diacid-γGlu}-RCPTATCATDRLAEFLHRSSF[Sar]A[NMeI]LSSTDVGSDTP-NH2; disulfide 2-7), in data set [1], the “Fibrillation lag time … (Ac)” value is listed as “FND”, the “Fibrillation lag time … (His)” value is recorded as “FND” and the “Fibrillation lag time … (Ph)” value is reported as “FND”. Also, in data set [2], the “Solubility, Acetate buffer pH 4” value is recorded as “SS (SS indicates solubility ≥ 1mg/ml)”; the “Solubility, Acetate buffer pH 5” value is on record as “SS (SS indicates solubility ≥ 1mg/ml)”; the “Solubility, Histidine buffer pH 6” value is “SS (SS indicates solubility ≥ 1mg/ml)”; the “Solubility, Histidine buffer pH 7” value is listed as “SS (SS indicates solubility ≥ 1mg/ml)”. In addition, in data set [2], the “Solubility, Phosphate buffer pH 6” value is “SS (SS indicates solubility ≥ 1mg/ml)”; the “Solubility, Phosphate buffer pH 7” value is listed as “SS (SS indicates solubility ≥ 1mg/ml)”; the “Solubility, Phosphate buffer pH 7.5” value is listed as “SS (SS indicates solubility ≥ 1mg/ml)”. Also, in data set [3], the “Food intake inhibition (%)” value came out at 99% and the “Body weight loss (%) after 96 hours” value was found to be 13 ± 1.1%.
